Laboratory results from patent US20250230193A1, “CYCLIC COMPOUND HAVING SELECTIVE KRAS INHIBITORY EFFECT ON HRAS AND NRAS” (CHUGAI SEIYAKU KABUSHIKI KAISHA, priority 2022, published 2025).

Assays:
[1] = target: GDP-bound NRAS wild-type protein (Homo sapiens, UniProt P01111); experiment: Binding to NRAS by surface plasmon resonance (SPR), Single Cycle Kinetics; settings: KD ratio NRAS/KRAS, SPR, GDP-bound wild-type proteins
[2] = target: GDP-bound HRAS wild-type protein (Homo sapiens, UniProt P01112); experiment: Binding to HRAS by surface plasmon resonance (SPR), Single Cycle Kinetics; settings: KD ratio HRAS/KRAS, SPR, GDP-bound wild-type proteins
GDP-bound HRAS wild-type protein, sequence (P01112 whole entry): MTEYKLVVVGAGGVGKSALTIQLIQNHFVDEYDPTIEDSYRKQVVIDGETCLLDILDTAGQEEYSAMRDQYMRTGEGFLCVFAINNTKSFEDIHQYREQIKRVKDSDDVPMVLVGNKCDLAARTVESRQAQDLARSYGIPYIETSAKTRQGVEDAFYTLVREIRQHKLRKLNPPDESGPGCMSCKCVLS

GDP-bound NRAS wild-type protein, sequence (P01111 whole entry): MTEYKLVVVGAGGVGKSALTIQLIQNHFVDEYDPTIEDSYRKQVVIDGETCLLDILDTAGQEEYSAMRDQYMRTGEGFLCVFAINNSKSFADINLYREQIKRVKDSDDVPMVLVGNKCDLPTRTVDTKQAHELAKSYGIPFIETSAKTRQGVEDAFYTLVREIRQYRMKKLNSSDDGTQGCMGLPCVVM

Structure (SMILES) | NRAS/KRAS (ratio of KD value with respect to GDP-bound NRAS wild-type protein to KD value with respect to KRAS) [1] | HRAS/KRAS (ratio of KD value with respect to GDP-bound HRAS wild-type protein to KD value with respect to KRAS) [2]
CCCO[C@@H]1C[C@H]2C(=O)NC3(CC(C)(C)C3)C(=O)N(C)[C@@H](C3CCCC3)C(=O)N(C)[C@H](C(=O)N(C)C)CC(=O)N(C)[C@H]3CCCCc4ccc(cc4)C[C@@H](C(=O)N(C)CC(=O)N[C@@H](CCc4ccc(C(F)(F)F)c(OC)c4)C(=O)N2C1)N1CC/C=C\C[C@@H](C1=O)N(C)C(=O)CN(C)C(=O)[C@H]([C@@H](C)CC)NC3=O [PP3077] | A (a compound having 10 or more and less than 20 is denoted as A) | B (a compound having 3 or more and less than 10 is denoted as B)
CC[C@H](C)[C@@H]1NC(=O)[C@@H]2CCCCc3ccc(cc3)C[C@@H](C(=O)N(C)CC(=O)N[C@@H](CCc3ccc(C(F)(F)F)c(OC)c3)C(=O)N3C[C@H](OC(C)C)C[C@H]3C(=O)NC3(CC(C)(C)C3)C(=O)N(C)[C@@H](C3CCCC3)C(=O)N(C)[C@H](C(=O)N(C)CC)CC(=O)N2C)N2CC/C=C\C[C@@H](C2=O)N(C)C(=O)CN(C)C1=O [PP3078] | A (a compound having 10 or more and less than 20 is denoted as A) | B (a compound having 3 or more and less than 10 is denoted as B)
CC[C@H](C)[C@@H]1NC(=O)[C@@H]2CCCCc3ccc(cc3)C[C@@H](C(=O)N(C)CC(=O)N[C@@H](CCc3ccc(C(F)(F)F)c(OC)c3)C(=O)N3C[C@H](OC4CCC4)C[C@H]3C(=O)NC3(CC(C)(C)C3)C(=O)N(C)[C@@H](C3CCCC3)C(=O)N(C)[C@H](C(=O)N(C)CC)CC(=O)N2C)N2CC/C=C\C[C@@H](C2=O)N(C)C(=O)CN(C)C1=O [PP3079] | A (a compound having 10 or more and less than 20 is denoted as A) | B (a compound having 3 or more and less than 10 is denoted as B)
CC[C@H](C)[C@@H]1NC(=O)[C@@H]2CCCCc3ccc(cc3)C[C@@H](C(=O)N(C)CC(=O)N[C@@H](CCc3ccc(C(F)(F)F)c(OC)c3)C(=O)N3C[C@H](OC4CCCC4)C[C@H]3C(=O)NC3(CC(C)(C)C3)C(=O)N(C)[C@@H](C3CCCC3)C(=O)N(C)[C@H](C(=O)N(C)C)CC(=O)N2C)N2CC/C=C\C[C@@H](C2=O)N(C)C(=O)CN(C)C1=O [PP3080] | A (a compound having 10 or more and less than 20 is denoted as A) | B (a compound having 3 or more and less than 10 is denoted as B)
CC[C@H](C)[C@@H]1NC(=O)[C@@H]2CCCCc3ccc(cc3)C[C@@H](C(=O)N(C)CC(=O)N[C@@H](CCc3ccc(C(F)(F)F)c(OC)c3)C(=O)N3CC4(CC4)C[C@H]3C(=O)NC3(CC(C)(C)C3)C(=O)N(C)[C@@H](C3CCCC3)C(=O)N(C)[C@H](C(=O)N(C)CC)CC(=O)N2C)N2CC/C=C\C[C@@H](C2=O)N(C)C(=O)CN(C)C1=O [PP3081] | A (a compound having 10 or more and less than 20 is denoted as A) | B (a compound having 3 or more and less than 10 is denoted as B)
CCCO[C@@H]1C[C@H]2C(=O)NC3(CC(C)(C)C3)C(=O)N(C)[C@@H](C3CCCC3)C(=O)N(C)[C@H](C(=O)N(C)C)CC(=O)N(C)[C@H]3CCCCc4ccc(cc4)C[C@@H](C(=O)N(C)CC(=O)N[C@@H](CCc4ccc(C(F)(F)F)c(OC)c4)C(=O)N2C1)N1CC/C=C\C[C@@H](C1=O)N(C)C(=O)CN(C1CC1)C(=O)[C@H]([C@@H](C)CC)NC3=O [PP3082] | B (a compound having 3 or more and less than 10 is denoted as B) | B (a compound having 3 or more and less than 10 is denoted as B)
CCCO[C@@H]1C[C@H]2C(=O)NC3(CC(C)(C)C3)C(=O)N(C)[C@@H](C3CCCC3)C(=O)N(C)[C@H](C(=O)N(C)CC)CC(=O)N(C)[C@H]3CCCc4ccc(cc4)C[C@@H](C(=O)N(C)CC(=O)N[C@@H](CCc4ccc(C(F)(F)F)c(OC)c4)C(=O)N2C1)N1CC/C=C\C[C@@H](C1=O)N(C)C(=O)CN(C)C(=O)[C@H]([C@@H](C)CC)NC3=O [PP3083] | A (a compound having 10 or more and less than 20 is denoted as A) | A (a compound having 10 or more and less than 20 is denoted as A)
CC[C@H](C)[C@@H]1NC(=O)[C@@H]2CCCc3ccc(cc3)C[C@@H](C(=O)N(C)CC(=O)N[C@@H](CCc3ccc(C(F)(F)F)c(OC)c3)C(=O)N3C[C@H](OC(C)C)C[C@H]3C(=O)NC3(CC(C)(C)C3)C(=O)N(C)[C@@H](C3CCCC3)C(=O)N(C)[C@H](C(=O)N(C)CC)CC(=O)N2C)N2CC/C=C\C[C@@H](C2=O)N(C)C(=O)CN(C)C1=O [PP3084] | A (a compound having 10 or more and less than 20 is denoted as A) | B (a compound having 3 or more and less than 10 is denoted as B)
CC[C@H](C)[C@@H]1NC(=O)[C@@H]2CCCc3ccc(cc3)C[C@@H](C(=O)N(C)CC(=O)N[C@@H](CCc3ccc(C(F)(F)F)c(OC)c3)C(=O)N3C[C@H](OC4CCC4)C[C@H]3C(=O)NC3(CC(C)(C)C3)C(=O)N(C)[C@@H](C3CCCC3)C(=O)N(C)[C@H](C(=O)N(C)CC)CC(=O)N2C)N2CC/C=C\C[C@@H](C2=O)N(C)C(=O)CN(C)C1=O [PP3085] | A (a compound having 10 or more and less than 20 is denoted as A) | B (a compound having 3 or more and less than 10 is denoted as B)
CC[C@H](C)[C@@H]1NC(=O)[C@@H]2CCCc3ccc(cc3)C[C@@H](C(=O)N(C)CC(=O)N[C@@H](CCc3ccc(C(F)(F)F)c(OC)c3)C(=O)N3C[C@H](OC4CCCC4)C[C@H]3C(=O)NC3(CC(C)(C)C3)C(=O)N(C)[C@@H](C3CCCC3)C(=O)N(C)[C@H](C(=O)N(C)CC)CC(=O)N2C)N2CC/C=C\C[C@@H](C2=O)N(C)C(=O)CN(C)C1=O [PP3086] | B (a compound having 3 or more and less than 10 is denoted as B) | B (a compound having 3 or more and less than 10 is denoted as B)
CC[C@H](C)[C@@H]1NC(=O)[C@@H]2CCCc3ccc(cc3)C[C@@H](C(=O)N(C)CC(=O)N[C@@H](CCc3ccc(C(F)(F)F)c(OC)c3)C(=O)N3CC4(CC4)C[C@H]3C(=O)NC3(CC(C)(C)C3)C(=O)N(C)[C@@H](C3CCCC3)C(=O)N(C)[C@H](C(=O)N(C)CC)CC(=O)N2C)N2CC/C=C\C[C@@H](C2=O)N(C)C(=O)CN(C)C1=O [PP3087] | A (a compound having 10 or more and less than 20 is denoted as A) | B (a compound having 3 or more and less than 10 is denoted as B)
CCCO[C@@H]1C[C@H]2C(=O)NC3(CC(C)(C)C3)C(=O)N(C)[C@@H](C3CCCC3)C(=O)N(C)[C@H](C(=O)N(C)CC)CC(=O)N(C)[C@H]3CCCc4ccc(cc4)C[C@@H](C(=O)N(C)CC(=O)N[C@@H](CCc4ccc(C(F)(F)F)c(OC)c4)C(=O)N2C1)N1CC/C=C\C[C@@H](C1=O)N(C)C(=O)CN(C1CC1)C(=O)[C@H]([C@@H](C)CC)NC3=O [PP3088] | B (a compound having 3 or more and less than 10 is denoted as B) | B (a compound having 3 or more and less than 10 is denoted as B)
CCCO[C@@H]1C[C@H]2C(=O)NC3(CC(C)(C)C3)C(=O)N(C)[C@@H](C3CCCC3)C(=O)N(C)[C@H](C(=O)N(C)CC)CC(=O)N(C)[C@H]3CCCc4ccc(cc4)C[C@@H](C(=O)N(C)CC(=O)N[C@@H](CCc4ccc(Cl)c(Cl)c4)C(=O)N2C1)N1CC/C=C\C[C@@H](C1=O)N(C)C(=O)CN(C)C(=O)[C@H]([C@@H](C)CC)NC3=O [PP3089] | B (a compound having 3 or more and less than 10 is denoted as B) | B (a compound having 3 or more and less than 10 is denoted as B)
CCO[C@@H]1C[C@H]2C(=O)N(C)C3(CC(C)(C)C3)C(=O)N(C)[C@@H](C3CCCC3)C(=O)N(C)[C@H](C(=O)N(C)C)CC(=O)N(C)[C@H]3CCCCCCc4ccc(cc4)C[C@@H](C(=O)N(C)CC(=O)N[C@@H](CCc4ccc(C(F)(F)F)c(OC)c4)C(=O)N2C1)N1CC/C=C\C[C@@H](C1=O)N(C)C(=O)CN(C)C(=O)[C@H]([C@@H](C)CC)NC3=O [PP3090] | A (a compound having 10 or more and less than 20 is denoted as A) | B (a compound having 3 or more and less than 10 is denoted as B)
CCO[C@@H]1C[C@H]2C(=O)N(C)C3(CC(C)(C)C3)C(=O)N(C)[C@@H](C3CCCC3)C(=O)N(C)[C@H](C(=O)N(C)C)CC(=O)N(C)[C@H]3CCCCCc4ccc(cc4)C[C@@H](C(=O)N(C)CC(=O)N[C@@H](CCc4ccc(C(F)(F)F)c(OC)c4)C(=O)N2C1)N1CC/C=C\C[C@@H](C1=O)N(C)C(=O)CN(C)C(=O)[C@H]([C@@H](C)CC)NC3=O [PP3091] | A (a compound having 10 or more and less than 20 is denoted as A) | B (a compound having 3 or more and less than 10 is denoted as B)
